In patent US12011475B2, “Polypeptide, polypeptide fragment, derivative thereof, and applications thereof” (CHENGDU HUITAI BIOMEDICINE CO., LTD., priority 2017, dated 2024):
Square brackets hold non-standard residues; d marks the D form. Primed or numbered codes have the meaning given here. Ends that are not written are not given here. PEG2′ = not defined here

Legend:
[1] = system: TGF-β/Smad signaling pathway; test: Western blot of Smad protein in lung tissue homogenate (Example 8); format: in vivo, rat; conditions: vs bleomycin group, 2.5 mg/kg peptide intratracheal; for levels of p-Smad2 and p-Smad3 proteins (grayscale value): p<0.05, FIG. 9; for intensities of the expression bands of p-Smad2 and p-Smad3 in lung tissue: GAPDH internal reference, FIG. 8
Experimental: (§1) The rats were weighed before administration, intramuscularly injected with 65 mg/kg Zoletil anesthetic solution. After the rats entered the stage III anesthesia, the experimental rats were fixated in the lateral decubitus. Gavage needle size 12 was inserted into rat trachea through oral cavity along the glottis to instill with drug. The experimental animals were fed normally from the 1st day to the 7th day after intratracheal administration, and were weighed every day with feed and water ad libitum.
(§2) The rats in blank control group were received no treatment after anesthesia; the rats in model group (bleomycin) were intratracheally instilled with bleomycin (3 mg/kg); the rats in PBS control group were intratracheally instilled with an equal volume of sterile PBS buffer (0.01 M, pH=9.5); the rats in polypeptide control group were intratracheally instilled with 2.5 mg/kg of the polypeptide N2 (the solvent was 0.01 M, pH=9.5 PBS buffer); the rats in N2 treatment group were intratracheally instilled with 2.5 mg/kg of the polypeptide N2 and 3 mg/kg of bleomycin simultaneously, the rats in N3 treatment group were intratracheally instilled with 2.5 mg/kg of the polypeptide N3 and 3 mg/kg of bleomycin simultaneously.
(§3) The rat lung tissue of Example 2 was taken, and the tissue was homogenized using RIPA lysate (100 mg of lung tissue corresponding to 1 mL of lysate), centrifuged and the supernatant was taken, and then the protein concentration was determined by BCA method. Equal amounts of protein samples were taken and Western blot experiment was performed using anti-GAPDH, anti-p-Smad2 and anti-p-Smad3 antibodies (the result is shown in FIG. 8).
The grayscale value of each band was detected and analyzed using Image pro plus 6.0 image analysis software (the result is shown in FIG. 9). […] The detection of grayscale value supported the above-mentioned description.

[2] = system: Fibronectin, Collagen I and Collagen III; test: Western blot of extracellular matrix protein in lung tissue homogenate (Example 6); format: in vivo, rat; conditions: vs bleomycin group, 2.5 mg/kg peptide intratracheal; for levels of Fibronectin, Collagen I and Collagen III proteins (grayscale value): p<0.05, FIG. 6; for intensities of the expression bands of Fibronectin, Collagen I and Collagen III in lung tissue: GAPDH internal reference, FIG. 5
Experimental: as §1, §2
as §3, with “and” for “and the tissue was”, “anti-Fibronectin, anti-Collagen I” for “anti-p-Smad2”, “anti-Collagen III” for “anti-p-Smad3”, “5).” for “8).”
The grayscale value of each band was detected and analyzed using Image pro plus 6.0 image analysis software (the result is shown in FIG. 6). […] The detection of grayscale value supported the above-mentioned description.

[3] = system: rat with pulmonary fibrosis induced by bleomycin; test: HE staining and alveolitis score of rat lung tissue (Example 4); format: in vivo; conditions: 2.5 mg/kg peptide + 3 mg/kg bleomycin intratracheal; for inflammatory pathology score (degree of alveolitis, grade 0 to 3): vs BLM group, p<0.01, FIG. 3; for pathological changes in lung tissue (HE staining): vs model group, FIG. 2
Experimental: as §1, §2
The lung tissue of the rats of Example 2 was taken, fixed with 4% paraformaldehyde and embedded in paraffin. The wax block embedded the lung tissue was sectioned along the largest cross section. Pathological changes in lung tissue were observed using hematoxylin-eosin (HE) staining. Pathological changes in lung tissue were observed under a light microscope (low magnification) at a magnification of 100 times (the result is shown in FIG. 2).
According to the method provided by Szapie, et al., the degree of alveolitis was graded according to the range of lesions and could be divided into 0 to 3 grades, corresponding to 0 to 3 points. The evaluation indexes for the degree of alveolitis are as follows: grade 0, no alveolitis; grade 1, mild alveolitis, manifested as a slight increase in alveolar septum, infiltration of monocytes, near the pleura or localized, with a lesion range of less than 20% without alveolar structural damage; grade 2, moderate alveolitis, the lesion ranges from 20% to 50%, relatively severe near the pleura; grade 3, severe alveolitis, diffusely distributed, the lesion range is more than 50%, with pulmonary parenchymal lesion occasionally.

[4] = system: rat with pulmonary fibrosis induced by bleomycin; test: Lung coefficient, bleomycin rat model (Examples 2-3); format: in vivo; conditions: vs bleomycin group; 2.5 mg/kg peptide + 3 mg/kg bleomycin intratracheal, simultaneously; p<0.05; FIG. 1
Experimental: as §1, with “libitum. […]” for “libitum.”
The rats in Example 2 were weighed and sacrificed by anesthesia overdose. […] After the wet weight of the whole lung was weighted by the electronic balance, the lung coefficient was calculated according to the formula, lung coefficient=lung mass (mg)/body weight (g) (the result is shown in FIG. 1).

[5] = system: rat with pulmonary fibrosis induced by bleomycin; test: Hydroxyproline content in lung tissue homogenate, alkali hydrolysis kit (Example 7); format: in vivo; conditions: vs bleomycin group; 2.5 mg/kg peptide intratracheal; p<0.05; FIG. 7
Experimental: as §1, with “libitum. […]” for “libitum.”
The rats of Example 2 were taken, and the hydroxyproline content in lung tissue homogenate was detected using Boster Hydroxyproline Alkali Hydrolysis Assay Kit (Cat. No. A030) (the result is shown in FIG. 7).

[6] = system: rat with pulmonary fibrosis induced by bleomycin; test: Inflammatory cells in bronchoalveolar lavage fluid, Wright-Giemsa staining (Example 5); format: in vivo; conditions: vs bleomycin group; 2.5 mg/kg peptide + 3 mg/kg bleomycin intratracheal; p<0.05; FIG. 4
Experimental: as §1, with “libitum. […]” for “libitum.”
Bronchoalveolar lavage fluid was collected, and […] by centrifugation. […] The counting method was: the number of macrophages, lymphocytes, and neutrophils was calculated according to the total number of inflammatory cells based on the respective proportion of macrophages, lymphocytes, and neutrophils in 100 intact cells (the result is shown in FIG. 4).

TGF-β signaling pathway = test: ctgf, Collagen I and Collagen III in lung tissue by RT-qPCR (Example 11); format: in vivo, rat; conditions: vs model group; 6 mg/kg peptide + 3 mg/kg bleomycin intratracheal; 18S RNA reference; p<0.05; FIG. 11
Experimental: (§4) The rats were weighed before administration, intramuscular injection of Zoletil anesthetic solution, the dose was 65 mg/kg. After the rats entered the stage III anesthesia, the experimental rats were bond in the incline lateral decubitus. A size 12 gavage needle was inserted into rat trachea through oral cavity along the glottis to infuse the drug. The experimental animals were fed normally from the 1st day to the 14th day after intratracheal administration, and were weighed regularly every day without restriction of feed or drinking water. […]
The rat lung tissue in the model group, the control group and the N4 treatment group of Example 9 was taken. […] After obtaining cDNA using reverse transcription, fluorescence quantitative PCR (qPCR) kit (Applied Biosystems, Cat. No. 4319413E) was used to detect the expression levels of connective tissue growth factor ctgf (forward primer: 5′-[…]-3′, reverse primer: 5′-[…]-3′) downstream of the TGF-β pathway, Collagen I (forward primer: 5′-TGCCGATGTCGCTATCCA-3′, reverse primer: 5′-[…]-3′) and Collagen III (forward primer: 5′-[…]-3′, reverse primer: 5′-[…]-3′). […]

active TGF-β = test: Active TGF-β in lung tissue by ELISA (Examples 9-10); format: in vivo, rat; conditions: vs model group; 6 mg/kg peptide + 3 mg/kg bleomycin intratracheal; p<0.05; FIG. 10
Experimental: as §4
The rat lung tissue in the model group, the control group and the N4 treatment group of Example 9 was taken, and homogenized using RIPA lysate (100 mg of lung tissue corresponding to 1 mL of lysate), centrifuged and the supernatant was taken, and then the protein concentration was determined by BCA method. Equal amounts of protein samples were taken and the active TGF-β content was measured by enzyme-linked immunosorbent assay ELISA (Promega, Cat. No. G7591) (the result is shown in FIG. 10), and one-way ANOVA was used for biostatistical analysis.

[7] = system: rat with pulmonary fibrosis induced by bleomycin; test: Hydroxyproline content in lung tissue homogenate, acid hydrolysis (Example 12); format: in vivo; conditions: vs model group; 6 mg/kg peptide + 3 mg/kg bleomycin intratracheal; p<0.05; FIG. 12
Experimental: The rats were weighed before administration, intramuscular injection of Zoletil anesthetic solution, the dose was 65 mg/kg. After the rats entered the stage III anesthesia, the experimental rats were bond in the incline lateral decubitus. A size 12 gavage needle was inserted into rat trachea through oral cavity along the glottis to infuse the drug. The experimental animals were fed normally from the 1st day to the 14th day after intratracheal administration, and were weighed regularly every day without restriction of feed or drinking water.
The rats in model group were intratracheally instilled with bleomycin (3 mg/kg); the rats in control group were intratracheally instilled with an equal volume of saline; the rats in treatment groups were intratracheally instilled with bleomycin (3 mg/kg) and corresponding therapeutic drug (6 mg/kg) simultaneously.
The lung tissue in the model group, the control group and the N4 treatment group of Example 9 was taken, and the hydroxyproline content in the lung tissue homogenate was detected using BioVision Hydroxyproline Acid Hydrolysis Assay Kit (Cat. No. K555-100) (the result is shown in FIG. 12), and one-way ANOVA was used for biostatistical analysis.

Row | Substance | levels of p-Smad2 and p-Smad3 proteins (grayscale value) [1] | intensities of the expression bands of p-Smad2 and p-Smad3 in lung tissue [1] | levels of Fibronectin, Collagen I and Collagen III proteins (grayscale value) [2] | intensities of the expression bands of Fibronectin, Collagen I and Collagen III in lung tissue [2] | inflammatory pathology score (degree of alveolitis, grade 0 to 3) [3] | pathological changes in lung tissue (HE staining) [3] | lung coefficients of the left lung, the right lung and the whole lung [4] | hydroxyproline content in lung tissue [5] | number of macrophages, heteromorphic nuclear cells and lymphocytes in bronchoalveolar lavage fluid [6] | gene expression levels of ctgf, collagen I and collagen III in lung tissue (TGF-β signaling pathway) | content of active TGF-β in the lung tissue (active TGF-β) | hydroxyproline content in lung tissue [7]
1 | (PEG2)TyrArgValArgPheLeuAlaLysGluAsnValThrGlnAspAlaGluAsp ([PEG2′]YRVRFLAKENVTQDAED; listed as Homo sapiens) [N3] | decreased significantly | almost returned to the level of the control group | decreased significantly | almost returned to the level of the control group | significant alleviation | a small amount of inflammatory cell infiltration in the interstitial | decreased significantly | decreased significantly | decreased significantly | – | – | –
2 | RFLAKENVTQD [N4] | – | – | – | – | – | – | – | – | – | decreased significantly | decreased significantly | decreased significantly
3 | YRVRFLAKENVTQDAED [N2] | decreased significantly | almost returned to the level of the control group | decreased significantly | almost returned to the level of the control group | significant alleviation | a small amount of inflammatory cell infiltration in the interstitial | decreased significantly | decreased significantly | decreased significantly | – | – | –
